Measured values taken from PubChem BioAssay (NCI).
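48-hour exposure; five concentrations; linearly interpolated endpoints. The concentration for full growth arrest is given as TGI.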

Experiments:
Assay in all cases: NCI-60 cell line screen, 48 h
[1] = test system: OVCAR-5 ovarian
[2] = test system: SK-MEL-5 melanoma
[3] = test system: U251 CNS
[4] = test system: NCI-H23 lung
[5] = test system: LOX IMVI melanoma
[6] = test system: OVCAR-8 ovarian
[7] = test system: HCT-15 colon
[8] = test system: DLD-1 colon
[9] = test system: NCI-H460 lung
[10] = test system: SF-268 CNS
[11] = test system: SNB-78 CNS
[12] = test system: CCRF-CEM leukemia
[13] = test system: HOP-62 NSCLC
[14] = test system: TK-10 renal
[15] = test system: SK-MEL-28 melanoma
[16] = test system: UO-31 renal
[17] = test system: SK-OV-3 ovarian
[18] = test system: UACC-62 melanoma
[19] = test system: SF-295 CNS
[20] = test system: RXF 393 renal
[21] = test system: M14 melanoma
[22] = test system: MALME-3M melanoma
[23] = test system: M19-MEL melanoma
[24] = test system: SW-620 colon
[25] = test system: DMS 114 small cell lung
[26] = test system: HCT-116 colon
[27] = test system: KM12 colon
[28] = test system: NCI-H522 lung
[29] = test system: 786-0 renal
[30] = test system: SK-MEL-2 melanoma
[31] = test system: NCI-H226 lung
[32] = test system: OVCAR-4 ovarian
[33] = test system: HCC-2998 colon
[34] = test system: SR leukemia
[35] = test system: SNB-19 CNS
[36] = test system: LXFL 529 NSCLC
[37] = test system: EKVX NSCLC
[38] = test system: MOLT-4 leukemia
[39] = test system: OVCAR-3 ovarian
[40] = test system: HT29 colon
[41] = test system: SN12C renal
[42] = test system: XF 498 CNS
[43] = test system: K-562 leukemia
[44] = test system: HOP-92 NSCLC
[45] = test system: IGROV1 ovarian
[46] = test system: DMS 273 small cell lung
[47] = test system: CAKI-1 renal
[48] = test system: COLO 205 colon
[49] = test system: SF-539 CNS
[50] = test system: ACHN renal
[51] = test system: A549 NSCLC
[52] = test system: SNB-75 CNS
[53] = test system: HL-60(TB) leukemia
[54] = test system: A498 renal
[55] = test system: PC-3 prostate
[56] = test system: MDA-MB-435
[57] = test system: UACC-257 melanoma
[58] = test system: HS 578T breast
[59] = test system: NCI/ADR-RES ovarian
[60] = test system: MDA-N
[61] = test system: DU-145 prostate
[62] = test system: MCF7 breast
[63] = test system: MDA-MB-231 breast
[64] = test system: T-47D breast
[65] = test system: BT-549 breast
[66] = test system: RPMI-8226 leukemia
[67] = test system: KM20L2 colon

Measured: TGI

CCCN1C(=O)C/C(=C\C(C)=O)Nc2ccccc21
not listed: [53] | [54] | [55] | [56] | [57] | [58] | [59] | [60] | [61] | [62] | [63] | [64] | [65] | [66] | [67]
> 100 µM: all other assays above

CCOP(=O)(OCC)C(NC(=O)OCC(Cl)(Cl)Cl)n1nnc(C(=O)OC)c1C(=O)OC (stereo not drawn)
not listed: [1] | [8] | [11] | [23] | [25] | [36] | [41] | [42] | [46] | [67]
> 100 µM: all other assays above

CC(Cn1c2c3ccccc3ccc2c2oc(=O)c3ccccc3c21)N(C)C (stereo not drawn)
not listed: [2] | [13] | [17] | [20] | [23] | [31] | [33] | [41] | [46] | [54] | [55] | [56] | [58] | [59] | [60] | [61] | [62] | [63] | [64] | [65]
> 100 µM: all other assays above

CCN(CC)c1ccc(/C=C(\C#N)c2nc(N)nc(N3N=C(C)CC3(C)C)n2)cc1
11.4 µM: [58]
24.4 µM: [6]
28.8 µM: [52]
22.4 µM: [44]
> 49.2 µM: [40]
14.6 µM: [31]
55.4 µM: [16]
28.4 µM: [47]
> 80.9 µM: [4]
36.5 µM: [28]
26.8 µM: [29] | [63]
> 61 µM: [2]
34.1 µM: [26] | [30]
41 µM: [22]
37.9 µM: [39]
34.2 µM: [45]
31.7 µM: [14]
27.9 µM: [50]
39.6 µM: [64]
> 76.2 µM: [37]
30.5 µM: [32]
29.3 µM: [61]
> 45.5 µM: [21]
71.2 µM: [41]
> 68.7 µM: [43]
32.3 µM: [51]
37.1 µM: [35]
49.7 µM: [19]
79.1 µM: [33]
23.6 µM: [13]
93.9 µM: [1]
26.1 µM: [3]
> 54 µM: [10]
19.9 µM: [17] | [49]
32.7 µM: [5]
35.2 µM: [54]
23.7 µM: [20]
> 49.4 µM: [59]
44.5 µM: [9]
not listed: [8] | [11] | [23] | [25] | [36] | [42] | [46] | [67]
> 100 µM: all other assays above

O=C1C2C(C(=O)N1O)N(Cc1ccccc1)C(=O)N2Cc1ccccc1 (stereo not drawn)
not listed: [30] | [46] | [55] | [56] | [58] | [59] | [60] | [61] | [62] | [63] | [64] | [65]
> 100 µM: all other assays above

Cc1cc2c(c3c1c1ccccc1n3C)C(=O)C=CC2=O
> 90.1 µM: [2]
> 92.5 µM: [33]
4.56 µM: [34]
26.5 µM: [66]
43.8 µM: [26]
> 78.2 µM: [45]
> 82.7 µM: [41]
20.4 µM: [8]
> 70.2 µM: [40] | [47]
70.5 µM: [10]
> 82.6 µM: [22]
> 24 µM: [12]
57.9 µM: [27]
> 88.4 µM: [19]
62.5 µM: [60]
34.7 µM: [28]
55.9 µM: [46]
12 µM: [38]
98.7 µM: [11]
> 54 µM: [43]
47.9 µM: [15]
65 µM: [14]
31.4 µM: [44] | [65]
45.1 µM: [3]
48.8 µM: [64]
16.7 µM: [36]
80.5 µM: [58]
56.4 µM: [6]
30.6 µM: [32]
> 64.6 µM: [50]
51.1 µM: [18]
51.9 µM: [30]
17.3 µM: [29]
75 µM: [63]
28.7 µM: [24]
30.5 µM: [20]
36.3 µM: [55]
25.8 µM: [62]
36.5 µM: [7] | [16]
16 µM: [53]
35.6 µM: [5]
88 µM: [21]
22.9 µM: [39]
69 µM: [57]
37.9 µM: [42]
71 µM: [49]
31 µM: [4]
not listed: [23] | [25] | [67]
> 100 µM: all other assays above

S=c1ssc2c3ssc(=S)c3n(Cc3ccccc3)c12
38.9 µM: [38]
58.9 µM: [49]
67 µM: [16]
58.2 µM: [12]
34.3 µM: [20]
not listed: [8] | [11] | [23] | [25] | [36] | [42] | [46] | [67]
> 100 µM: all other assays above
